Source: publication PMC6268995, “(E)-5-Styryl-1H-indole and (E)-6-Styrylquinoline Derivatives Serve as Probes for β-Amyloid Plaques” (Molecules, 2012)
“Also recorded” adds a separate entry of the source. Read-outs that look alike come from different tables or passages of the source.

Columns and labels:
[1] = target: T1, Aβ1–40 aggregates (Homo sapiens, UniProt P05067); test: Competition binding assay on Aβ1–40 aggregates using [125I]TZDM as radio-ligand; settings: Aβ1–40 aggregates against [125I]TZDM; triplicate, mean ± SD
T1 construct: β-amyloid(1–40) were purchased from AnaSpec; purchased AnaSpec (San Jose, CA, USA)
Procedure: The lyophilized white powder of β-amyloid(1–40) were purchased from AnaSpec (San Jose, CA, USA). After reconstituted by adding basic buffer (1% NH4OH. 60–70 μL) to β-amyloid (1–40) (1 mg) aggregation of Aβ1–40 was carried out by gently dissolving Aβ1–40 (0.25 mg/mL) in a PBS buffer (pH 7.4). The solution was incubated at 37 °C for 72 h with gentle and constant shaking. Binding studies were carried out according to the procedure described previously with some modifications using [^125I]TZDM as the radiolabeled standard. […] The mixture was incubated at 37 °C for 2 h. […] Filters containing the bound ^125I ligand were counted in a γ-counter (WALLAC Wizard 1470, PerkinElmer Life Sciences, Waltham, MA, USA) with 75% counting efﬁciency. The IC50 values were determined using GraphPad Prism 5.0, and those for the inhibition constant (Ki) were calculated using the Cheng Prusoff equation: Ki = IC50/(1 + [L]/Kd).

[2] = target: Aβ plaques (Homo sapiens, UniProt P05067); test: In vitro fluorescent staining of amyloid plaques in brain sections from transgenic mouse; assay type: binding, transgenic model mouse (APP/PS1); settings: brain sections 8 µm, APP/PS1, 12 months, male; 1 µM
Procedure: Parafﬁn-embedded brain sections of transgenic model mouse (8 µm, APP/PS1, 12 months, male) were used for the in vitro fluorescent staining of amyloid plaques. The brain sections were deparafﬁnized with xylene, ethanol and distilled water. After immersion in PBS (0.02 M, pH 7.4) for 30 min, the brain sections were incubated with 20% ethanol solution (1 µM) of compound 8 for 10 min. The localization of plaques was confirmed by staining with thioﬂavin-S on the adjacent sections. Finally, the sections were washed with 40% ethanol and PBS (0.02 M, pH 7.4). Fluorescent observation was performed by a Stereo Discovery V12 instrument (Zeiss, Oberkochen, Germany) equipped with a LP 505 filter set (excitation, 405 nm).

[3] = design: method as in PMID 12519062; settings: normal mice, cited from earlier work
[4] = Partition coefficient determination (n-octanol/PBS); assay type: physicochemical; settings: n-octanol / PBS 0.02 M, pH 7.4
Procedure: The determination of partition coefﬁcients of [^125I]8 and [^125I]17 was performed according to the procedure previously reported with some modifications. Ligand [^125I]8 or [^125I]17 (~5 μCi) was mixed with 3 mL each of n-octanol and PBS (0.02 M, pH 7.4) in a test tube. The test tube was vortexed for 5 min at room temperature, followed by centrifugation for 10 min at 3,000 rpm. Two weighed samples from the n-octanol (50 µL) and buffer layers (400 µL) were counted in a γ-counter. The partition coefﬁcient was expressed as the logarithm of the ratio of the counts per gram from n-octanol versus that of PBS. Samples from the n-octanol layer were repartitioned until consistent partition coefﬁcient values were obtained. The measurements were done in triplicate and repeated three times.

[5] = In vivo biodistribution in normal mice; design: species or system KunMing normal mice; settings: iv injection
Procedure: In vivo biodistribution studies were performed in KunMing normal mice (female, average weight 18–22 g) and in accordance with the national laws related to the care and experiments on laboratory animal. A saline solution (100 µL) containing [^125I]8 or [^125I]17 (1 µCi) was injected directly into the tail vein of mice. The mice (n = 5 for each time point) were sacriﬁced at designated time points post-injection. The organs of interest were removed and weighed, and the radioactivity was counted with an automatic γ-counter (WALLAC Wizard 1470).

T1 sequence (P05067 672-711 limits assumed): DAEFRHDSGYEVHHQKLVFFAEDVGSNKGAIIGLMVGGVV
Aβ plaques, sequence (P05067 672-711 limits assumed): as above

## C(=C\c1ccc2[nH]ccc2c1)/c1ccccc1 [Compound 4, (E)-5-Styryl-1H-indole]
[1]
  Ki: 25.1 ± 2.1 nM
other
  melting point: 162 to 163 °C

## Fc1ccc(/C=C/c2ccc3[nH]ccc3c2)cc1 [Compound 5, (E)-5-(4-Fluorostyryl)-1H-indole]
[1]
  Ki: 89.3 ± 2.6 nM

## Clc1ccc(/C=C/c2ccc3[nH]ccc3c2)cc1 [Compound 6, (E)-5-(4-Chlorostyryl)-1H-indole]
[1]
  Ki: 51.5 ± 1 nM

## Brc1ccc(/C=C/c2ccc3[nH]ccc3c2)cc1 [Compound 7, (E)-5-(4-Bromostyryl)-1H-indole]
[1]
  Ki: 16.3 ± 1.7 nM
other
  melting point: 215 to 216 °C

## Ic1ccc(/C=C/c2ccc3[nH]ccc3c2)cc1 [Compound 8, (E)-5-(4-Iodostyryl)-1H-indole]
[1]
  Ki: 4.1 ± 0.2 nM
[2]
  Fluorescent staining of Aβ plaques: specific binding to Aβplaques; also recorded: clearly stained Aβ plaques
other
  melting point: 211 to 212 °C

## COc1ccc(/C=C/c2ccc3[nH]ccc3c2)cc1 [Compound 10, (E)-5-(4-Methoxystyryl)-1H-indole]
[1]
  Ki: 32.4 ± 1.9 nM

## Fc1ccc(/C=C/c2ccc3ncccc3c2)cc1 [Compound 14, (E)-6-(4-Fluorostyryl)quinoline]
[1]
  Ki: 270.4 ± 1.5 nM

## Clc1ccc(/C=C/c2ccc3ncccc3c2)cc1 [Compound 15, (E)-6-(4-Chlorostyryl)quinoline]
[1]
  Ki: 45 ± 1.3 nM

## Brc1ccc(/C=C/c2ccc3ncccc3c2)cc1 [Compound 16, (E)-6-(4-Bromostyryl)quinoline]
[1]
  Ki: 23.5 ± 1.3 nM

## Ic1ccc(/C=C/c2ccc3ncccc3c2)cc1 [Compound 17, (E)-6-(4-Iodostyryl)quinoline]
[1]
  Ki: 8.6 ± 1.2 nM
other
  melting point: 173 to 174 °C

## Cc1ccc(/C=C/c2ccc3ncccc3c2)cc1 [Compound 18, (E)-6-(4-Methylstyryl)quinoline]
[1]
  Ki: 288.4 ± 1.3 nM

## CN(C)c1ccc(-c2cn3cc([123I])ccc3n2)cc1 [[^123I]IMPY]
[3]; 2 min postinjection ref 16
  brain uptake: 2.88 % ID/organ
[3]; 60 min postinjection ref 16
  brain uptake: 0.21 % ID/organ
[3]; from literature values ref 16
  brain2min/brain60min ratio: 13.7

## [125I]c1ccc(/C=C/c2ccc3ncccc3c2)cc1 [[^125I]17]
[4]
  logD: 2.73
[5]; 2 min
  Biodistribution Blood: 11.39 ± 1.56 % ID/g
  Biodistribution Brain: 2.05 ± 0.25 % ID/g
  Biodistribution Heart: 7.70 ± 0.86 % ID/g
  Biodistribution Kidney: 15.01 ± 1.56 % ID/g
  Biodistribution Liver: 22.45 ± 1.79 % ID/g
  Biodistribution Lung: 13.56 ± 1.71 % ID/g
  Biodistribution Muscle: 2.78 ± 0.42 % ID/g
  Biodistribution Spleen: 5.88 ± 0.30 % ID/g
  Biodistribution Stomach: 4.05 ± 0.09 % ID/organ
[5]; 15 min
  Biodistribution Blood: 6.31 ± 0.51 % ID/g
  Biodistribution Brain: 1.18 ± 0.17 % ID/g
  Biodistribution Heart: 3.80 ± 0.12 % ID/g
  Biodistribution Kidney: 7.47 ± 1.01 % ID/g
  Biodistribution Liver: 9.95 ± 0.18 % ID/g
  Biodistribution Lung: 6.42 ± 0.47 % ID/g
  Biodistribution Muscle: 1.68 ± 0.20 % ID/g
  Biodistribution Spleen: 5.91 ± 0.58 % ID/g
  Biodistribution Stomach: 15.84 ± 0.78 % ID/organ
[5]; 30 min
  Biodistribution Blood: 5.80 ± 0.37 % ID/g
  Biodistribution Brain: 0.93 ± 0.13 % ID/g
  Biodistribution Heart: 3.21 ± 0.11 % ID/g
  Biodistribution Kidney: 6.57 ± 0.50 % ID/g
  Biodistribution Liver: 9.12 ± 0.53 % ID/g
  Biodistribution Lung: 5.64 ± 0.41 % ID/g
  Biodistribution Muscle: 2.30 ± 0.32 % ID/g
  Biodistribution Spleen: 4.66 ± 0.52 % ID/g
  Biodistribution Stomach: 8.11 ± 1.21 % ID/organ
[5]; 60 min
  Biodistribution Blood: 3.86 ± 0.74 % ID/g
  Biodistribution Brain: 0.55 ± 0.11 % ID/g
  Biodistribution Heart: 2.55 ± 0.21 % ID/g
  Biodistribution Kidney: 4.72 ± 0.69 % ID/g
  Biodistribution Liver: 6.97 ± 0.28 % ID/g
  Biodistribution Lung: 4.55 ± 0.49 % ID/g
  Biodistribution Muscle: 1.40 ± 0.34 % ID/g
  Biodistribution Spleen: 4.71 ± 0.97 % ID/g
  Biodistribution Stomach: 6.75 ± 0.43 % ID/organ
[5]; 120 min
  Biodistribution Blood: 1.97 ± 0.35 % ID/g
  Biodistribution Brain: 0.26 ± 0.03 % ID/g
  Biodistribution Heart: 1.33 ± 0.06 % ID/g
  Biodistribution Kidney: 2.20 ± 0.34 % ID/g
  Biodistribution Liver: 3.93 ± 0.46 % ID/g
  Biodistribution Lung: 2.01 ± 0.18 % ID/g
  Biodistribution Muscle: 0.72 ± 0.21 % ID/g
  Biodistribution Spleen: 2.25 ± 0.36 % ID/g
  Biodistribution Stomach: 11.12 ± 2.48 % ID/organ
[5]; 240 min
  Biodistribution Blood: 1.38 ± 0.24 % ID/g
  Biodistribution Brain: 0.14 ± 0.02 % ID/g
  Biodistribution Heart: 0.80 ± 0.19 % ID/g
  Biodistribution Kidney: 1.64 ± 0.23 % ID/g
  Biodistribution Liver: 2.96 ± 0.28 % ID/g
  Biodistribution Lung: 1.43 ± 0.28 % ID/g
  Biodistribution Muscle: 0.61 ± 0.08 % ID/g
  Biodistribution Spleen: 1.59 ± 0.17 % ID/g
  Biodistribution Stomach: 7.03 ± 1.51 % ID/organ

## (E)-5-(4-Methoxystyryl)-1H-indole [Compound 9]
[1]
  Ki: 15.8 ± 1.5 nM
